The values below come from the supplement of paper PMC10307832.

The first test concerns NCI-H650. Nature of the test: relative viability (nuclei count vs DMSO), 5 days (fraction); higher = more cells survive. The note with it: first compound 0.2 µM. In outline: (§1)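 Dosing by pin tool came one day after lung cancer cell lines were seeded in 1536-well plates, using either one drug or a fixed anchor-drug dose plus five library-drug doses (not always all listed) in √10 steps. After 5 days, nuclei were counted on 4× images. Relative viability is treated-well nuclei count divided by vehicle-well nuclei count, and values are medians of duplicate plates.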
As for `COCC1(CO)C(=O)C2CCN1CC2` (stereo not drawn) [PRIMA-1MET] + Nc1ncn([C@H]2C[C@H](O)[C@@H](CO)O2)c(=O)n1 [Decitabine] (partner 2 µM), the relative viability is 0.315.
The compound `COCC1(CO)C(=O)C2CCN1CC2` (stereo not drawn) [PRIMA-1MET] + O=C(c1cc(Cc2n[nH]c(=O)c3ccccc23)ccc1F)N1CCN(C(=O)C2CC2)CC1 [Olaparib] (partner 8 µM) had a relative viability of 0.492.

The same test, now with this note: first compound 0.6325 µM.
Regarding `COCC1(CO)C(=O)C2CCN1CC2` (stereo not drawn) [PRIMA-1MET] + Nc1nc2[nH]cc(CCc3ccc(C(=O)N[C@@H](CCC(=O)O)C(=O)O)cc3)c2c(=O)[nH]1 [Pemetrexed] (partner 0.2 µM), the relative viability was found to be 0.894.
Consider `COCC1(CO)C(=O)C2CCN1CC2` (stereo not drawn) [PRIMA-1MET] + CC(=O)Nc1cccc(-n2c(=O)n(C3CC3)c(=O)c3c(Nc4ccc(I)cc4F)n(C)c(=O)c(C)c32)c1 [Trametinib] (partner 0.02 µM), for which the relative viability was determined as 0.965.
The same measure, in the same setting: then `COCC1(CO)C(=O)C2CCN1CC2` (stereo not drawn) [PRIMA-1MET] + Nc1ncn([C@H]2C[C@H](O)[C@@H](CO)O2)c(=O)n1 [Decitabine] (partner 2 µM), with 0.255.
In turn, `COCC1(CO)C(=O)C2CCN1CC2` (stereo not drawn) [PRIMA-1MET] + O=C(c1cc(Cc2n[nH]c(=O)c3ccccc23)ccc1F)N1CCN(C(=O)C2CC2)CC1 [Olaparib] (partner 8 µM) came in with a relative viability of 0.453.

Still in this test, the particulars now being: first compound 2 µM.
The compound `COCC1(CO)C(=O)C2CCN1CC2` (stereo not drawn) [PRIMA-1MET] + N=C(N)NC(=N)NCCc1ccccc1 [Phenformin] (partner 250 µM) gave a relative viability of 0.433.
`COCC1(CO)C(=O)C2CCN1CC2` (stereo not drawn) [PRIMA-1MET] + Nc1nc2[nH]cc(CCc3ccc(C(=O)N[C@@H](CCC(=O)O)C(=O)O)cc3)c2c(=O)[nH]1 [Pemetrexed] (partner 0.2 µM) showed a relative viability of 0.884.
Same read-out and setting: under `COCC1(CO)C(=O)C2CCN1CC2` (stereo not drawn) [PRIMA-1MET] + CC(=O)Nc1cccc(-n2c(=O)n(C3CC3)c(=O)c3c(Nc4ccc(I)cc4F)n(C)c(=O)c(C)c32)c1 [Trametinib] (partner 0.02 µM) stands 0.762.
Still for that read-out and setting: then `COCC1(CO)C(=O)C2CCN1CC2` (stereo not drawn) [PRIMA-1MET] + Nc1ncn([C@H]2C[C@H](O)[C@@H](CO)O2)c(=O)n1 [Decitabine] (partner 2 µM), with 0.315; and `COCC1(CO)C(=O)C2CCN1CC2` (stereo not drawn) [PRIMA-1MET] + O=C(c1cc(Cc2n[nH]c(=O)c3ccccc23)ccc1F)N1CCN(C(=O)C2CC2)CC1 [Olaparib] (partner 8 µM), with 0.339.

The test is the same for the next values; noted with them: first compound 6.325 µM.
For `COCC1(CO)C(=O)C2CCN1CC2` (stereo not drawn) [PRIMA-1MET] + N=C(N)NC(=N)NCCc1ccccc1 [Phenformin] (partner 250 µM), the relative viability was 0.482.
For `COCC1(CO)C(=O)C2CCN1CC2` (stereo not drawn) [PRIMA-1MET] + Nc1nc2[nH]cc(CCc3ccc(C(=O)N[C@@H](CCC(=O)O)C(=O)O)cc3)c2c(=O)[nH]1 [Pemetrexed] (partner 0.2 µM), the relative viability was 0.978.
Still for that read-out and setting: under `COCC1(CO)C(=O)C2CCN1CC2` (stereo not drawn) [PRIMA-1MET] + CC(=O)Nc1cccc(-n2c(=O)n(C3CC3)c(=O)c3c(Nc4ccc(I)cc4F)n(C)c(=O)c(C)c32)c1 [Trametinib] (partner 0.02 µM) stands 0.833; under `COCC1(CO)C(=O)C2CCN1CC2` (stereo not drawn) [PRIMA-1MET] + Nc1ncn([C@H]2C[C@H](O)[C@@H](CO)O2)c(=O)n1 [Decitabine] (partner 2 µM), 0.332.
Take `COCC1(CO)C(=O)C2CCN1CC2` (stereo not drawn) [PRIMA-1MET] + O=C(c1cc(Cc2n[nH]c(=O)c3ccccc23)ccc1F)N1CCN(C(=O)C2CC2)CC1 [Olaparib] (partner 8 µM): the relative viability was determined as 0.368.

Still in this test, the particulars now being: first compound 20 µM.
With `COCC1(CO)C(=O)C2CCN1CC2` (stereo not drawn) [PRIMA-1MET] + N=C(N)NC(=N)NCCc1ccccc1 [Phenformin] (partner 250 µM), the relative viability stood at 0.438.
With `COCC1(CO)C(=O)C2CCN1CC2` (stereo not drawn) [PRIMA-1MET] + Nc1nc2[nH]cc(CCc3ccc(C(=O)N[C@@H](CCC(=O)O)C(=O)O)cc3)c2c(=O)[nH]1 [Pemetrexed] (partner 0.2 µM), the relative viability is 0.263.
`COCC1(CO)C(=O)C2CCN1CC2` (stereo not drawn) [PRIMA-1MET] + CC(=O)Nc1cccc(-n2c(=O)n(C3CC3)c(=O)c3c(Nc4ccc(I)cc4F)n(C)c(=O)c(C)c32)c1 [Trametinib] (partner 0.02 µM) gave a relative viability of 0.0675.
As to `COCC1(CO)C(=O)C2CCN1CC2` (stereo not drawn) [PRIMA-1MET] + Nc1ncn([C@H]2C[C@H](O)[C@@H](CO)O2)c(=O)n1 [Decitabine] (partner 2 µM), the relative viability was found to be 0.199.
`COCC1(CO)C(=O)C2CCN1CC2` (stereo not drawn) [PRIMA-1MET] + O=C(c1cc(Cc2n[nH]c(=O)c3ccccc23)ccc1F)N1CCN(C(=O)C2CC2)CC1 [Olaparib] (partner 8 µM) registered a relative viability of 0.187.

The subject of another test is NCI-H358. The description is as above. The note with it: first compound 0.2 µM. The method in brief:
as §1
As for `COCC1(CO)C(=O)C2CCN1CC2` (stereo not drawn) [PRIMA-1MET] + N=C(N)NC(=N)NCCc1ccccc1 [Phenformin] (partner 250 µM), the relative viability was found to be 0.341.
For the compound `COCC1(CO)C(=O)C2CCN1CC2` (stereo not drawn) [PRIMA-1MET] + Nc1nc2[nH]cc(CCc3ccc(C(=O)N[C@@H](CCC(=O)O)C(=O)O)cc3)c2c(=O)[nH]1 [Pemetrexed] (partner 0.2 µM), the relative viability was determined as 0.175.
The same measure, in the same setting: under `COCC1(CO)C(=O)C2CCN1CC2` (stereo not drawn) [PRIMA-1MET] + CC(=O)Nc1cccc(-n2c(=O)n(C3CC3)c(=O)c3c(Nc4ccc(I)cc4F)n(C)c(=O)c(C)c32)c1 [Trametinib] (partner 0.02 µM) stands 0.137.
`COCC1(CO)C(=O)C2CCN1CC2` (stereo not drawn) [PRIMA-1MET] + Nc1ncn([C@H]2C[C@H](O)[C@@H](CO)O2)c(=O)n1 [Decitabine] (partner 2 µM) had a relative viability of 0.214.
`COCC1(CO)C(=O)C2CCN1CC2` (stereo not drawn) [PRIMA-1MET] + O=C(c1cc(Cc2n[nH]c(=O)c3ccccc23)ccc1F)N1CCN(C(=O)C2CC2)CC1 [Olaparib] (partner 8 µM) returned a relative viability of 0.623.

Still in this test, the particulars now being: first compound 0.6325 µM.
The compound `COCC1(CO)C(=O)C2CCN1CC2` (stereo not drawn) [PRIMA-1MET] + Nc1nc2[nH]cc(CCc3ccc(C(=O)N[C@@H](CCC(=O)O)C(=O)O)cc3)c2c(=O)[nH]1 [Pemetrexed] (partner 0.2 µM) came in with a relative viability of 0.159.
On the same count and under the same terms, under `COCC1(CO)C(=O)C2CCN1CC2` (stereo not drawn) [PRIMA-1MET] + CC(=O)Nc1cccc(-n2c(=O)n(C3CC3)c(=O)c3c(Nc4ccc(I)cc4F)n(C)c(=O)c(C)c32)c1 [Trametinib] (partner 0.02 µM) stands 0.134.
In turn, `COCC1(CO)C(=O)C2CCN1CC2` (stereo not drawn) [PRIMA-1MET] + Nc1ncn([C@H]2C[C@H](O)[C@@H](CO)O2)c(=O)n1 [Decitabine] (partner 2 µM) displayed a relative viability of 0.154.
Take `COCC1(CO)C(=O)C2CCN1CC2` (stereo not drawn) [PRIMA-1MET] + O=C(c1cc(Cc2n[nH]c(=O)c3ccccc23)ccc1F)N1CCN(C(=O)C2CC2)CC1 [Olaparib] (partner 8 µM): the relative viability stood at 0.555.

Staying with this test, now noted: first compound 2 µM.
`COCC1(CO)C(=O)C2CCN1CC2` (stereo not drawn) [PRIMA-1MET] + N=C(N)NC(=N)NCCc1ccccc1 [Phenformin] (partner 250 µM) had a relative viability of 0.253.
`COCC1(CO)C(=O)C2CCN1CC2` (stereo not drawn) [PRIMA-1MET] + Nc1nc2[nH]cc(CCc3ccc(C(=O)N[C@@H](CCC(=O)O)C(=O)O)cc3)c2c(=O)[nH]1 [Pemetrexed] (partner 0.2 µM) gave a relative viability of 0.165.
Take `COCC1(CO)C(=O)C2CCN1CC2` (stereo not drawn) [PRIMA-1MET] + CC(=O)Nc1cccc(-n2c(=O)n(C3CC3)c(=O)c3c(Nc4ccc(I)cc4F)n(C)c(=O)c(C)c32)c1 [Trametinib] (partner 0.02 µM): the relative viability is 0.108.
